In US20220402900A1, “1,2,4-OXADIAZOL-5-ONE DERIVATIVES FOR THE TREATMENT OF CANCER” (Basilea Pharmaceutica International AG, priority 2019, published 2022):

Key:
[1] = target: T1, human TEAD2 (amino acids 217-447) (Homo sapiens, UniProt Q15562); assay: Thermal shift assay (TSA); format: binding; details: 3 μM recombinant TEAD2, compound 7 μM, shift vs DMSO control
T1 construct: human TEAD2 (amino acids 217-447); His-tag (N); purchased Proteros biostructures PR-0365; host or cells: E. coli
Procedure: The thermal shift assay (TSA) was utilized to characterize target engagement in vitro based on ligand-dependent thermal stabilization of the protein. N-terminally His-tagged human TEAD2 (amino acids 217-447) expressed and purified from E. coli was purchased from Proteros biostructures (cat no. PR-0365). The melting reactions were performed in white, 96 well qPCR plates (Roche Diagnostics, cat. no. 04 729 692 001) in 20 mM HEPES pH 7, 100 mM NaCl in the presence of 4×SYPRO orange (Sigma, cat. no. S5692). Each well contained 3 μM recombinant TEAD2 and either DMSO (control) or experimental compounds at a final concentration of 7 μM. The total volume was 20 μL and the final DMSO concentration was 1%. The plate was sealed and analyzed in a LightCycler 480 II (Roche Diagnostics) by continuously reading the fluorescence using the 465-580 nm filter set while heating from 25° C. to 95° C. using a linear gradient of 1° C./min. Melting temperatures were determined by numerical differentiation using the LightCycler Thermal Shift Analysis software (Roche Diagnostics). The shifts in melting temperature caused by experimental compounds compared to the control are expressed as ΔTm (Table 2).

[2] = tested on: TEAD reporter gene activity; assay: TEAD reporter gene assay (MCF7 TEAD reporter cell line); format: cell-based; details: Homo sapiens; TEAD luciferase reporter in MCF7 cells, 24 hours; read-out: IC50 TEAD RGA (converted)
Excerpt: A TEAD reporter cell line was purchased from BPS Bioscience (cat. no. 60618). It contains the firefly luciferase gene under control of TEAD responsive elements stably integrated into the human breast cancer MCF7 cells. In proliferating cells, a basal level of unphosphorylated YAP/TAZ resides in the nucleus and drives the TEAD-dependent expression of the luciferase reporter. The cells were cultivated as recommended by the supplier. Inhibition of TEAD reporter gene activity by experimental compounds was measured using white, clear-bottom, 96 well cell culture plates (Greiner Bio-One, cat. no. 655098). The cells were seeded at a density of 20,000 cells per well in 100 μL growth medium and the plates were incubated overnight at 37° C. with 5% CO2 prior to treatment. Experimental compounds were serially diluted in DMSO to 200× the desired final concentrations. 0.5 μL aliquots of DMSO or the test samples were then mixed into the wells and the cells were further incubated for 24 hours. Luminescence was then measured on a Synergy 4 reader (BioTek) using the ONE-Glo Luciferase Assay System (Promega, cat. no. E6120) according to the manufacturer's instructions. Relative inhibition values were calculated by normalizing the raw data using DMSO-treated cells (0% inhibition) and wells devoid of cells (100% inhibition). IC50 values were calculated by fitting concentration-response data to a sigmoidal 4-parameter logistic model.

T1 sequence (Q15562 217-447): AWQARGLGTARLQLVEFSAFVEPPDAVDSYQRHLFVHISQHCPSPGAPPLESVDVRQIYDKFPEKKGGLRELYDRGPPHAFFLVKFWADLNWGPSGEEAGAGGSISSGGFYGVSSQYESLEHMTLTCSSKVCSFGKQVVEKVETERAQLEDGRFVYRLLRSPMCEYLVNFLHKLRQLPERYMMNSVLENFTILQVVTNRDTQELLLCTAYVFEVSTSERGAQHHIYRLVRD

| SMILES | ΔTm at 7 µM [1] [°C] | IC50 [2] [nM] |
| --- | --- | --- |
| O=c1[nH]c(-c2cccnc2Nc2ccc(C(F)(F)F)cc2)no1 [Example 1, 3-[2-[4-(trifluoromethyl)anilino]-3-pyridyl]-4H-1,2,4-oxadiazol-5-one] | 9.9 | 39 |
| O=c1[nH]c(-c2nccnc2Nc2ccc(OC(F)(F)F)cc2)no1 [Example 3, 3-[3-[4-(trifluoromethoxy)anilino]pyrazin-2-yl]-4H-1,2,4-oxadiazol-5-one] | 11.5 | 90 |
| O=c1[nH]c(-c2nc(CO)cnc2Nc2ccc(C(F)(F)F)cc2)no1 [Example 6, 3-[6-(hydroxymethyl)-3-[4-(trifluoromethyl)anilino]pyrazin-2-yl]-4H-1,2,4-oxadiazol-5-one] | 5 | 499 |
| O=c1[nH]c(-c2nccnc2Nc2ccc(OC(F)(F)F)cc2Cl)no1 [Example 8, 3-[3-[2-chloro-4-(trifluoromethoxy)anilino]pyrazin-2-yl]-4H-1,2,4-oxadiazol-5-one] | 7.5 | 1800 |
| O=c1[nH]c(-c2ncccc2Nc2ccc(C(F)(F)F)cc2)no1 [Example 9, 3-[3-[4-(trifluoromethyl)anilino]-2-pyridyl]-4H-1,2,4-oxadiazol-5-one] | 9.2 | 52 |
| O=c1[nH]c(-c2cc(C(F)(F)F)cnc2Nc2ccc(C(F)(F)F)cc2)no1 [Example 10, 3-[5-(trifluoromethyl)-2-[4-(trifluoromethyl)anilino]-3-pyridyl]-4H-1,2,4-oxadiazol-5-one] | 10.1 | 374 |
| COc1cnc(-c2noc(=O)[nH]2)c(Nc2ccc(C(F)(F)F)cc2)n1 [Example 12, 3-[5-methoxy-3-[4-(trifluoromethyl)anilino]pyrazin-2-yl]-4H-1,2,4-oxadiazol-5-one] | 7.5 | 44 |
| O=c1[nH]c(-c2c(F)ccnc2Nc2ccc(C(F)(F)F)cc2)no1 [Example 13, 3-[4-fluoro-2-[4-(trifluoromethyl)anilino]-3-pyridyl]-4H-1,2,4-oxadiazol-5-one] | 10.3 | 95 |
| O=c1[nH]c(-c2nccnc2Nc2ccc(OCC3CC3)cc2)no1 [Example 14, 3-[3-[4-(cyclopropylmethoxy)anilino]pyrazin-2-yl]-4H-1,2,4-oxadiazol-5-one] | 9 | 2770 |
| CC(C)(C)c1ccc(Nc2nccnc2-c2noc(=O)[nH]2)cc1 [Example 15, 3-[3-(4-tert-butylanilino)pyrazin-2-yl]-4H-1,2,4-oxadiazol-5-one] | 11.8 | 72 |
| CCc1ccc(Nc2nccnc2-c2noc(=O)[nH]2)cc1 [Example 17, 3-[3-(4-ethylanilino)pyrazin-2-yl]-4H-1,2,4-oxadiazol-5-one] | 8.7 | 708 |
| O=c1[nH]c(-c2nccnc2Nc2ccc(-c3nccs3)cc2)no1 [Example 18, 3-[3-(4-thiazol-2-ylanilino)pyrazin-2-yl]-4H-1,2,4-oxadiazol-5-one] | 2.5 | 828 |
| O=c1[nH]c(-c2nccnc2Nc2ccc(C(F)(F)F)c(Cl)c2)no1 [Example 20, 3-[3-[3-chloro-4-(trifluoromethyl)anilino]pyrazin-2-yl]-4H-1,2,4-oxadiazol-5-one] | 10.6 | 236 |
| COc1cc(C(F)(F)F)ccc1Nc1nccnc1-c1noc(=O)[nH]1 [Example 21, 3-[3-[2-methoxy-4-(trifluoromethyl)anilino]pyrazin-2-yl]-4H-1,2,4-oxadiazol-5-one] | 2.1 | 102 |
| COc1cc(Nc2nccnc2-c2noc(=O)[nH]2)ccc1C(F)(F)F [Example 22, 3-[3-[3-methoxy-4-(trifluoromethyl)anilino]pyrazin-2-yl]-4H-1,2,4-oxadiazol-5-one] | 6.1 | 70 |
| O=c1[nH]c(-c2nccnc2Nc2ccc(C(F)(F)F)nc2)no1 [Example 24, 3-[3-[[6-(trifluoromethyl)-3-pyridyl]amino]pyrazin-2-yl]-4H-1,2,4-oxadiazol-5-one] | 3.4 | 340 |
| Cc1cc(C)c(-c2noc(=O)[nH]2)c(Nc2ccc(C(F)(F)F)cc2)n1 [Example 26, 3-[4,6-dimethyl-2-[4-(trifluoromethyl)anilino]-3-pyridyl]-4H-1,2,4-oxadiazol-5-one] | 9.2 | 433 |
| O=C(Nc1ccc(Nc2nccnc2-c2noc(=O)[nH]2)cc1)C1CCC1 [Example 27, N-[4-[[3-(5-oxo-4H-1,2,4-oxadiazol-3-yl)pyrazin-2-yl]amino]phenyl]cyclobutanecarboxamide] | 0.4 | 1540 |
| O=c1[nH]c(-c2nccnc2Nc2ccc(-c3ccccc3)cc2)no1 [Example 29, 3-[3-(4-phenylanilino)pyrazin-2-yl]-4H-1,2,4-oxadiazol-5-one] | 7.3 | 503 |
| O=c1[nH]c(-c2nccnc2Nc2ccc(Cl)c(C(F)(F)F)c2)no1 [Example 30, 3-[3-[4-chloro-3-(trifluoromethyl)anilino]pyrazin-2-yl]-4H-1,2,4-oxadiazol-5-one] | 5.3 | 4910 |
| Cc1cnc(Nc2ccc(C(F)(F)F)cc2)c(-c2noc(=O)[nH]2)n1 [Example 32, 3-[6-methyl-3-[4-(trifluoromethyl)anilino]pyrazin-2-yl]-4H-1,2,4-oxadiazol-5-one] | 10.2 | 28 |

Other lines, results leading:

| ΔTm at 7 µM [1] [°C] | IC50 [2] [nM] | SMILES |
| --- | --- | --- |
| 2 | 85 | Nc1cnc(Nc2ccc(C(F)(F)F)cc2)c(-c2noc(=O)[nH]2)n1 [Example 4, 3-[6-amino-3-[4-(trifluoromethyl)anilino]pyrazin-2-yl]-4H-1,2,4-oxadiazol-5-one] |
| 4.5 | 117 | COc1cnc(Nc2ccc(C(F)(F)F)cc2)c(-c2noc(=O)[nH]2)n1 [Example 5, 3-[6-methoxy-3-[4-(trifluoromethyl)anilino]pyrazin-2-yl]-4H-1,2,4-oxadiazol-5-one] |
| 0.5 | 2840 | NCCc1cnc(Nc2ccc(C(F)(F)F)cc2)c(-c2noc(=O)[nH]2)n1 [Example 7, 3-[6-(2-aminoethyl)-3-[4-(trifluoromethyl)anilino]pyrazin-2-yl]-4H-1,2,4-oxadiazol-5-one] |
| 11.1 | 552 | CC(C)c1ccc(Nc2nccnc2-c2noc(=O)[nH]2)cc1 [Example 16, 3-[3-(4-isopropylanilino)pyrazin-2-yl]-4H-1,2,4-oxadiazol-5-one] |
| 10.1 | 131 | O=c1[nH]c(-c2nccnc2Nc2ccc(C(F)(F)F)c(F)c2)no1 [Example 19, 3-[3-[3-fluoro-4-(trifluoromethyl)anilino]pyrazin-2-yl]-4H-1,2,4-oxadiazol-5-one] |
| 1.6 | 64 | O=c1[nH]c(-c2nccnc2Nc2cnc(C(F)(F)F)nc2)no1 [Example 23, 3-[3-[[2-(trifluoromethyl)pyrimidin-5-yl]amino]pyrazin-2-yl]-4H-1,2,4-oxadiazol-5-one] |
| 9.6 | 117 | O=c1[nH]c(-c2nccnc2Nc2ccc(C(F)(F)F)cc2F)no1 [Example 25] |
| 6.1 | 557 | Cc1ccnc(Nc2ccc(C(F)(F)F)cc2)c1-c1noc(=O)[nH]1 [Example 28, 3-[4-methyl-2-[4-(trifluoromethyl)anilino]-3-pyridyl]-4H-1,2,4-oxadiazol-5-one] |
| 10.5 | 35 | Cc1cnc(-c2noc(=O)[nH]2)c(Nc2ccc(C(F)(F)F)cc2)n1 [Example 31, 3-[5-methyl-3-[4-(trifluoromethyl)anilino]pyrazin-2-yl]-4H-1,2,4-oxadiazol-5-one] |
| 3.6 | 127 | Nc1cc(Nc2nccnc2-c2noc(=O)[nH]2)ccc1C(F)(F)F [Example 33, 3-[3-[3-amino-4-(trifluoromethyl)anilino]pyrazin-2-yl]-4H-1,2,4-oxadiazol-5-one] |
| 0.4 | 2120 | Nc1cc(C(F)(F)F)ccc1Nc1nccnc1-c1noc(=O)[nH]1 [Example 34, 3-[3-[2-amino-4-(trifluoromethyl)anilino]pyrazin-2-yl]-4H-1,2,4-oxadiazol-5-one] |
